Our source for the LC retention time values is the RepoRT retention time repository (doi:10.1007/s00216-021-03828-0).

What all share (conditions): stereoisomer not certain
Series [1] is described as follows: RP, Merck Supelco Ascentis Express C18, 100 × 2.1 mm, 2 µm, 40 °C, 0.4 mL/min, estimated dead time 0.55 min; A: water + 0.1% formic acid, pH 3; B: acetonitrile + 0.1% formic acid, pH 3; gradient (min/%B) 0/5 2/5 17/99.9 20/99.9.
Assay in series [2]: as above
This is another data set of the same source.

The nature of series [3]: RP, Merck Supelco Ascentis Express C18, 100 × 2.1 mm, 2 µm, 40 °C, 0.2 mL/min, estimated dead time 1.1 min; A: water + 0.1% formic acid, pH 3; B: acetonitrile + 0.1% formic acid, pH 3; gradient (min/%B) 0/5 2/5 17/99.9 20/99.9.
The nature of series [4]: RP, Merck Supelco Ascentis Express C18, 100 × 2.1 mm, 2 µm, 39 °C, 0.3 mL/min, estimated dead time 0.73 min; A: water + 0.1% formic acid, pH 3; B: acetonitrile + 0.1% formic acid, pH 3; gradient (min/%B) 0/5 2/5 17/99.9 20/99.9.
The nature of series [5]: RP, Merck Supelco Ascentis Express C18, 100 × 2.1 mm, 2 µm, 40 °C, 0.25 mL/min, estimated dead time 0.88 min; A: water + 0.1% formic acid, pH 3; B: acetonitrile + 0.1% formic acid, pH 3; gradient (min/%B) 0/5 2/5 17/99.9 20/99.9.
Series [6] is described as follows: RP, Merck Supelco Ascentis Express C18, 100 × 2.1 mm, 2 µm, 40 °C, 0.2 mL/min, estimated dead time 1.1 min; A: water + 0.1% formic acid, pH 3; B: acetonitrile + 0.1% formic acid, pH 3; gradient (min/%B) 0/5 2/5 17/99.9 20/99.9. This is another data set of the same source.
Series [7] can be described thus: RP, Merck Supelco Ascentis Express C18, 100 × 2.1 mm, 2 µm, 40 °C, 0.35 mL/min, estimated dead time 0.63 min; A: water + 0.1% formic acid, pH 3; B: acetonitrile + 0.1% formic acid, pH 3; gradient (min/%B) 0/5 2/5 17/99.9 20/99.9.

For the compound `NC(=O)Cc1c[nH]c2ccccc12` [INDOLE-3-ACETAMIDE], the LC retention time in series [1] is 4.23 min; in series [2] it was 4.27 min; in series [3], 5.83 min; in series [4], 4.85 min; in series [5] it was 5.28 min; in series [6], 5.84 min. For the same compound, the LC retention time in series [7] was 4.51 min.

Regarding `OCCc1c[nH]c2ccccc12` [INDOLE-3-ETHANOL], the LC retention time in series [1] is 4.78 min; in series [2], 5.61 min; in series [3], 7.25 min; in series [4] it was 6.22 min; in series [5], 6.66 min; in series [6], 7.27 min. For the same compound, the LC retention time in series [7] was 5.95 min.

Turning to `O=C(O)C(=O)Cc1c[nH]c2ccccc12` [INDOLE-3-PYRUVATE], the LC retention time in series [1] was 5.58 min; in series [2], 5.52 min; in series [3], 7 min; in series [4], 6.08 min; in series [5] it was 6.47 min; in series [6] it was 7.11 min. The LC retention time in series [7] was 5.84 min.

As to `O=CCc1c[nH]c2ccccc12` [INDOLEACETALDEHYDE], the LC retention time is 2.17 min in series [1]; 2.15 min in series [2]; 4.97 min in series [3]; 4.07 min in series [4]; 4.45 min in series [5]; 4.21 min in series [6]. In addition, the LC retention time in series [7] is 2.45 min.

On to `O=c1[nH]cnc2c1ncn2C1OC(CO)C(O)C1O` (stereo unspecified) [INOSINE], for which the LC retention time in series [1] was 0.663 min; in series [2] it was 0.703 min; in series [3], 1.39 min; in series [4] it was 0.943 min; in series [5] it was 1.12 min; in series [6] it was 1.37 min. The LC retention time in series [7] is 0.76 min.

Consider `CCC(C)C(N)C(=O)O` (stereo unspecified) [ISOLEUCINE], for which the LC retention time was 0.717 min in series [1]; 0.697 min in series [2]; 1.45 min in series [3]; 0.93 min in series [4]; 1.14 min in series [5]; 1.43 min in series [6]. The LC retention time in series [7] was 0.793 min.

As to `O=C(O)c1cc(=O)c2ccccc2[nH]1` [KYNURENATE], the LC retention time was 2.93 min in series [1]; 2.97 min in series [2]; 4.52 min in series [3]; 3.64 min in series [4]; 4 min in series [5]; 4.53 min in series [6]. In addition, in series [7], the LC retention time was 3.24 min.

With `NC(=O)[C@@H](N)Cc1c[nH]c2ccccc12` [L-TRYPTOPHANAMIDE], the LC retention time in series [1] is 1.53 min; in series [2], 1.56 min; in series [3], 3.02 min; in series [4], 2.02 min; in series [5], 2.41 min; in series [6], 2.97 min. Moreover, in series [7], the LC retention time was 1.78 min.

Consider `CCCCCCCCCCCC(=O)O` [LAURATE], for which the LC retention time in series [1] was 12.5 min; in series [2], 12.6 min; in series [3], 14.7 min; in series [4] it was 13.3 min; in series [5] it was 13.9 min; in series [6], 14.7 min. Moreover, the LC retention time in series [7] was 12.9 min.

Turning to `CCCCCCCCCCCC(=O)OC(CC(=O)[O-])C[N+](C)(C)C` (stereo unspecified) [LAUROYLCARNITINE], the LC retention time is 9.25 min in series [1]; 9.29 min in series [2]; 10.8 min in series [3]; 9.71 min in series [4]; 10.2 min in series [5]; 10.7 min in series [6]. Besides, the LC retention time in series [7] is 9.5 min.

As for `CC(C)CC(N)C(=O)O` (stereo unspecified) [LEUCINE], the LC retention time in series [1] was 0.727 min; in series [2], 0.743 min; in series [3], 1.56 min; in series [4] it was 0.98 min; in series [5] it was 1.22 min; in series [6], 1.55 min. For the same compound, the LC retention time in series [7] is 0.873 min.

On to `NC(Cc1cc(I)c(Oc2ccc(O)c(I)c2)c(I)c1)C(=O)O` (stereo unspecified) [LIOTHYRONINE], for which the LC retention time is 7 min in series [1]; 7.03 min in series [2]; 8.19 min in series [3]; 7.45 min in series [4]; 7.75 min in series [5]; 8.2 min in series [6]. For the same compound, the LC retention time in series [7] is 7.2 min.

Regarding `CC(CCC(=O)O)C1CCC2C3CCC4CC(O)CCC4(C)C3CCC12C` (stereo unspecified) [LITHOCHOLATE], the LC retention time was 12.4 min in series [1]; 12.4 min in series [2]; 14.4 min in series [3]; 13.1 min in series [4]; 13.7 min in series [5]; 14.4 min in series [6]. The LC retention time in series [7] was 12.7 min.

For `CC(CCC(=O)NCCS(=O)(=O)O)C1CCC2C3CCC4CC(O)CCC4(C)C3CCC12C` (stereo unspecified) [LITHOCHOLYLTAURINE], the LC retention time in series [1] was 9.62 min; in series [2], 9.6 min; in series [3], 11 min; in series [4], 10.2 min; in series [5] it was 10.5 min; in series [6], 11.1 min. In addition, in series [7], the LC retention time was 9.86 min.

`Cc1cc2nc3[nH]c(=O)[nH]c(=O)c3nc2cc1C` [LUMICHROME]: the LC retention time in series [1] was 5.5 min; in series [2] it was 5.54 min; in series [3], 6.91 min; in series [4] it was 6.03 min; in series [5] it was 6.4 min; in series [6], 6.93 min. In addition, in series [7], the LC retention time is 5.74 min.

Consider `O=C(O)C(O)c1ccccc1` (stereo unspecified) [MANDELATE], for which the LC retention time in series [1] was 2.88 min; in series [2], 2.95 min; in series [3] it was 4.83 min; in series [4], 3.67 min; in series [5] it was 4.19 min; in series [6] it was 4.85 min. The LC retention time in series [7] was 3.27 min.

For `COc1ccc2[nH]cc(CCNC(C)=O)c2c1` [MELATONIN], the LC retention time was 5.49 min in series [1]; 5.53 min in series [2]; 7 min in series [3]; 6.06 min in series [4]; 6.46 min in series [5]; 7.01 min in series [6]. The LC retention time in series [7] is 5.75 min.

Consider `CC(CC(=O)O)CC(=O)O` [METHYGLUTARATE], for which the LC retention time in series [1] was 1.91 min; in series [2], 1.95 min; in series [3], 3.84 min; in series [4] it was 2.6 min; in series [5], 3.09 min; in series [6], 3.82 min. Besides, in series [7], the LC retention time is 2.21 min.

Take `CSCC1OC(n2cnc3c(N)ncnc32)C(O)C1O` (stereo unspecified) [METHYLTHIOADENOSINE]: the LC retention time in series [1] is 2.27 min; in series [2] it was 2.3 min; in series [3], 4.08 min; in series [4], 2.98 min; in series [5] it was 3.51 min; in series [6] it was 4.07 min. Further, in series [7], the LC retention time was 2.58 min.

As for `CCCCCCCCCCCCCC(=O)O` [MYRISTATE], the LC retention time was 14.2 min in series [1]; 14.3 min in series [2]; 16.4 min in series [3]; 15 min in series [4]; 15.6 min in series [5]; 16.4 min in series [6]. Moreover, the LC retention time in series [7] was 14.6 min.

In the case of `CC(C)=CCNc1ncnc2nc[nH]c12` [N6-(DELTA2-ISOPENTENYL)-ADENINE], the LC retention time is 4.21 min in series [1]; 4.24 min in series [2]; 5.58 min in series [3]; 4.71 min in series [4]; 5.08 min in series [5]; 5.58 min in series [6]. Besides, the LC retention time in series [7] is 4.44 min.

As to `CC(=O)NC(C)C(=O)O` (stereo unspecified) [N-ACETYLALANINE], the LC retention time in series [1] is 0.74 min; in series [2], 0.737 min; in series [3] it was 1.52 min; in series [4] it was 1.01 min; in series [5] it was 1.19 min; in series [6], 1.51 min. Moreover, in series [7], the LC retention time is 0.853 min.

Regarding `CC(=O)NC(CS)C(=O)O` (stereo unspecified) [N-ACETYLCYSTEINE], the LC retention time is 0.937 min in series [1]; 0.95 min in series [2]; 1.92 min in series [3]; 1.26 min in series [4]; 1.52 min in series [5]; 1.91 min in series [6]. Besides, the LC retention time in series [7] is 1.09 min.
